Source: patent US20240261258A1, “Presurgical Perineural Administration of Resiniferatoxin For Reduction of Post-Operative Pain” (Sorrento Therapeutics, Inc., priority 2021, published 2024)
Values joined by “and” are separate entries in the source; they are usually repeats but may differ in a detail not shown here. Identical values can stand only once.

Legend:
[1] = RTX plasma concentrations after nerve block or local application; assay type: in vivo, dog; parameters: Plasma concentration: unit not given here
Procedure: Fourteen adult female beagle dogs, weighing 11.9±0.6 kg and between 3-5 years of age, were enrolled in this study. Each animal was randomly assigned to one of four groups. Four dogs (group 1) received a femoral and sciatic nerve block with 12.5 μg RTX per nerve (25 μg RTX total) diluted with sterile saline for a total volume of 2 mL (half volume per block). Another four dogs (group 2) received a femoral and a sciatic nerve block with 3.12 μg RTX per nerve block (6.25 μg RTX total) diluted with sterile saline for a total volume of 2 mL (half volume per block). Group 3 (4 animals) received a femoral and sciatic nerve block with 5 mg bupivacaine total (standard of care) plus a total of 50 μg RTX (total volume of 4 mL, concentration 12.5 μg/mL) applied locally to the cut on the tibia for 10 min. Group 4 (2 animals) was the control group and received a femoral and a sciatic nerve block with 5 mg bupivacaine total (standard of care).
Blood (4-5 mL) was collected at the beginning of the study for complete blood count and chemistry parameters. Another 2 mL sample was collected at time 0 (baseline), 5, 15, 45, 60, and 90 minutes, and at 2, 3, 4, 6, and 8 hours after RTX administration for pharmacokinetic analysis to determine how plasma levels of RTX change over time. Dog plasma samples were extracted using an organic solvent mixture, dried under nitrogen, reconstituted and analyzed by reversed-phase HPLC. The mobile phase was nebulized using heated nitrogen in a Z-spray source/interface set to electrospray positive ionization mode. The ionized compounds are detected using tandem mass spectrometry or MS/MS.
RTX Plasma concentrations (pg/mL) were measured in the dogs following administration of RTX solution as femoral and sciatic nerve blocks.

[2] = tested on: healthy dogs undergoing TPLO surgery; test: Algometer measurements on the surgical site; assay type: in vivo, dog; conditions: Baseline; L (treated) hindlimb; Group 1 High, 25 μg
Procedure: The injection site of RTX or local anesthetic was evaluated by visual examination (normal, red, swollen) and palpation (no pain, mild, severe). The surgical site was evaluated by visual examination (normal, red, swollen) and with the aid of an algometer. With the dog in lateral recumbency, the tip of the algometer was placed on the surgical site and pressure was manually applied until the animal moved the leg. During the baseline data collection, several measurements were taken until 3 measurements were within ±1 Newton (N). The number recorded corresponded to the average of these 3 values. After surgery, the force was applied only once. Data were collected from both the left (treated) and the right (non-treated) hindlimbs.
Mean plus or minus the standard deviation (±SD) force in Newton was recorded at the pressure applied on the surgical incision when the subject moved the leg from the algometer. The left side was the treated stifle.

C=C(C)[C@]12C[C@@H](C)[C@@]34O[C@](Cc5ccccc5)(O[C@@H]1[C@@H]3C=C(COC(=O)Cc1ccc(O)c(OC)c1)C[C@]1(O)C(=O)C(C)=C[C@@H]41)O2 [RTX, resiniferatoxin]
Plasma concentrations for RTX ([1]; Group 1 High Dose, 25 μg total F/Sc nerve block, 45 min, dogs 0271, 2968, 3837, 5635 in c3-c6): BQL (BQL—Below the Quantifiable Limit < 50.0 pg/mL) | Plasma concentrations for RTX ([1]; Group 1 High Dose, 25 μg total F/Sc nerve block, 60 min, dogs 0271, 2968, 3837, 5635 in c3-c6): BQL (BQL—Below the Quantifiable Limit < 50.0 pg/mL) | Plasma concentrations for RTX ([1]; Group 1 High Dose, 25 μg total F/Sc nerve block, 6 h, dogs 0271, 2968, 3837, 5635 in c3-c6): 0.0941 ng/mL and 0.182 ng/mL and 0.13 ng/mL | Plasma concentrations for RTX ([1]; Group 1 High Dose, 25 μg total F/Sc nerve block, 8 h, dogs 0271, 2968, 3837, 5635 in c3-c6): 0.0623 ng/mL and 0.117 ng/mL and 0.0991 ng/mL | Plasma concentrations for RTX ([1]; Group 1 High Dose, 25 μg total F/Sc nerve block, Predose, dogs 0271, 2968, 3837, 5635 in c3-c6): BQL (BQL—Below the Quantifiable Limit < 50.0 pg/mL) | Plasma concentrations for RTX ([1]; Group 2 Low Dose, 6.25 μg total F/Sc nerve block, 0 min, dogs 2561, 3743, 4681, 5686 in c3-c6): BQL (BQL—Below the Quantifiable Limit < 50.0 pg/mL) | Plasma concentrations for RTX ([1]; Group 2 Low Dose, 6.25 μg total F/Sc nerve block, 5 min, dogs 2561, 3743, 4681, 5686 in c3-c6): BQL (BQL—Below the Quantifiable Limit < 50.0 pg/mL) | Plasma concentrations for RTX ([1]; Group 2 Low Dose, 6.25 μg total F/Sc nerve block, 15 min, dogs 2561, 3743, 4681, 5686 in c3-c6): BQL (BQL—Below the Quantifiable Limit < 50.0 pg/mL) | Plasma concentrations for RTX ([1]; Group 2 Low Dose, 6.25 μg total F/Sc nerve block, 45 min, dogs 2561, 3743, 4681, 5686 in c3-c6): BQL (BQL—Below the Quantifiable Limit < 50.0 pg/mL) | Plasma concentrations for RTX ([1]; Group 2 Low Dose, 6.25 μg total F/Sc nerve block, 60 min, dogs 2561, 3743, 4681, 5686 in c3-c6): BQL (BQL—Below the Quantifiable Limit < 50.0 pg/mL) | Plasma concentrations for RTX ([1]; Group 2 Low Dose, 6.25 μg total F/Sc nerve block, 6 h, dogs 2561, 3743, 4681, 5686 in c3-c6): BQL (BQL—Below the Quantifiable Limit < 50.0 pg/mL) | Plasma concentrations for RTX ([1]; Group 2 Low Dose, 6.25 μg total F/Sc nerve block, 8 h, dogs 2561, 3743, 4681, 5686 in c3-c6): BQL (BQL—Below the Quantifiable Limit < 50.0 pg/mL) | Plasma concentrations for RTX ([1]; Group 2 Low Dose, 6.25 μg total F/Sc nerve block, Predose, dogs 2561, 3743, 4681, 5686 in c3-c6): BQL (BQL—Below the Quantifiable Limit < 50.0 pg/mL) | Plasma concentrations for RTX ([1]; Group 3 Local, 50 μg on bone incision, 0 min, dogs 2272, 3007, 3722, 9501 in c3-c6): BQL (BQL—Below the Quantifiable Limit < 50.0 pg/mL) | Plasma concentrations for RTX ([1]; Group 3 Local, 50 μg on bone incision, 5 min, dogs 2272, 3007, 3722, 9501 in c3-c6): BQL (BQL—Below the Quantifiable Limit < 50.0 pg/mL) | Plasma concentrations for RTX ([1]; Group 3 Local, 50 μg on bone incision, 15 min, dogs 2272, 3007, 3722, 9501 in c3-c6): BQL (BQL—Below the Quantifiable Limit < 50.0 pg/mL) | Plasma concentrations for RTX ([1]; Group 3 Local, 50 μg on bone incision, 45 min, dogs 2272, 3007, 3722, 9501 in c3-c6): BQL (BQL—Below the Quantifiable Limit < 50.0 pg/mL) | Plasma concentrations for RTX ([1]; Group 3 Local, 50 μg on bone incision, 60 min, dogs 2272, 3007, 3722, 9501 in c3-c6): BQL (BQL—Below the Quantifiable Limit < 50.0 pg/mL) | Plasma concentrations for RTX ([1]; Group 3 Local, 50 μg on bone incision, 90 min, dogs 2272, 3007, 3722, 9501 in c3-c6): BQL (BQL—Below the Quantifiable Limit < 50.0 pg/mL) | Plasma concentrations for RTX ([1]; Group 3 Local, 50 μg on bone incision, 2 h, dogs 2272, 3007, 3722, 9501 in c3-c6): BQL (BQL—Below the Quantifiable Limit < 50.0 pg/mL) | Plasma concentrations for RTX ([1]; Group 3 Local, 50 μg on bone incision, 3 h, dogs 2272, 3007, 3722, 9501 in c3-c6): BQL (BQL—Below the Quantifiable Limit < 50.0 pg/mL) | Plasma concentrations for RTX ([1]; Group 3 Local, 50 μg on bone incision, 4 h, dogs 2272, 3007, 3722, 9501 in c3-c6): BQL (BQL—Below the Quantifiable Limit < 50.0 pg/mL) | Plasma concentrations for RTX ([1]; Group 3 Local, 50 μg on bone incision, 6 h, dogs 2272, 3007, 3722, 9501 in c3-c6): BQL (BQL—Below the Quantifiable Limit < 50.0 pg/mL) | Plasma concentrations for RTX ([1]; Group 3 Local, 50 μg on bone incision, 8 h, dogs 2272, 3007, 3722, 9501 in c3-c6): BQL (BQL—Below the Quantifiable Limit < 50.0 pg/mL) | Plasma concentrations for RTX ([1]; Group 3 Local, 50 μg on bone incision, Predose, dogs 2272, 3007, 3722, 9501 in c3-c6): BQL (BQL—Below the Quantifiable Limit < 50.0 pg/mL) | Plasma concentration ([1]; Subject 2968 (group 1), 2 hour timepoint): 1790 | RTX plasma levels ([1]; all dogs that received the local application (50 μg)): below the quantifiable limit at all timepoints | concentration at 90 min ([1]; female, beagle, dog, plasma, 6.25 μg, Group 2 Low Dose, 6.25 μg total F/Sc nerve block, 90 min, dogs 2561, 3743, 4681, 5686 in c3-c6): 0.085 ng/mL | concentration at 2 h ([1]; female, beagle, dog, plasma, 6.25 μg, Group 2 Low Dose, 6.25 μg total F/Sc nerve block, 2 h, dogs 2561, 3743, 4681, 5686 in c3-c6): 0.0607 ng/mL | concentration at 3 h ([1]; female, beagle, dog, plasma, 6.25 μg, Group 2 Low Dose, 6.25 μg total F/Sc nerve block, 3 h, dogs 2561, 3743, 4681, 5686 in c3-c6): 0.0847 ng/mL | concentration at 4 h ([1]; female, beagle, dog, plasma, 6.25 μg, Group 2 Low Dose, 6.25 μg total F/Sc nerve block, 4 h, dogs 2561, 3743, 4681, 5686 in c3-c6): 0.0506 ng/mL | concentration at 0 min ([1]; female, beagle, dog, plasma, 25 μg, Group 1 High Dose, 25 μg total F/Sc nerve block, 0 min, dogs 0271, 2968, 3837, 5635 in c3-c6): 0.397 ng/mL | concentration at 5 min ([1]; female, beagle, dog, plasma, 25 μg, Group 1 High Dose, 25 μg total F/Sc nerve block, 5 min, dogs 0271, 2968, 3837, 5635 in c3-c6): 0.1 ng/mL | concentration at 15 min ([1]; female, beagle, dog, plasma, 25 μg, Group 1 High Dose, 25 μg total F/Sc nerve block, 15 min, dogs 0271, 2968, 3837, 5635 in c3-c6): 0.0964 ng/mL | concentration at 90 min ([1]; female, beagle, dog, plasma, 25 μg, Group 1 High Dose, 25 μg total F/Sc nerve block, 90 min, dogs 0271, 2968, 3837, 5635 in c3-c6): 0.0551 ng/mL | concentration at 6 h ([1]; female, beagle, dog, plasma, 25 μg, Group 1 High Dose, 25 μg total F/Sc nerve block, 6 h, dogs 0271, 2968, 3837, 5635 in c3-c6): 0.105 ng/mL | concentration at 8 h ([1]; female, beagle, dog, plasma, 25 μg, Group 1 High Dose, 25 μg total F/Sc nerve block, 8 h, dogs 0271, 2968, 3837, 5635 in c3-c6): 0.0656 ng/mL | RTX plasma levels at last time point ([1]; high dose group (25 μg total nerve block)): still detectable at 8 hours | Time after which RTX plasma levels fell to below detectable ([1]; low dose group (6.25 μg total nerve block)): 3 to 4 h | Time after administration until plasma levels of RTX reached detectable levels ([1]; nerve block, regardless of dose, except one dog in group 1 (subject 5635)): at least 90 minutes | Algometer force on surgical site when the dog moved the leg (mean ± SD) [2]: 7.4 ± 3.1 Newton
